The molecules below were run on intracellular HBV DNA (assay: Real-time PCR for intracellular HBV DNA in HepAD38 cells). Conditions: 65 hours treatment.
Assay type: cell-based
Protocol: HepAD38 cells were cultured in DMEM medium (Welgene) supplemented with 200 unit/mL penicillin, 200 μg/mL streptomycin, and 10% FBS. During maintenance and passage, the cells were cultured together with 0.4 μg/mL tetracycline. Two days before the treatment with compounds for inducing HBV replication was started, the medium was replaced with a tetracycline-free complete growth medium. […]
HepAD38 cells were treated with a compound for 65 hours and then recovered, and intracellular HBV DNA was extracted therefrom according to the protocol in the DNeasy Blood & Tissue Kit (Qiagen). The primers and probes used to quantify HBV DNA were 5′-[…]-3′, 5′-[…]-3′, and 5′-/56-FAM/TGT CCT GGT/ZEN/TAT CGC TGG ATG TGT CT/3IABkFQ/-3′. The HBV DNA was amplified by real-time PCR assay using LightCycler 480 (Roche) (J. Virol., 2018, 92(16):e00339-18). All of the processes were confirmed in duplicate.

| Molecule | IC50 [nM] |
| --- | --- |
| COc1ncc(N(Cc2cc(C(F)(F)F)[nH]n2)C(=O)Nc2ccc(F)c(C(F)F)n2)cn1 [Example 204, 3-(6-(difluoromethyl)-5-fluoropyridin-2-yl)-1-(2-methoxypyrimidin-5-yl)-1-((5-(trifluoromethyl)-1H-pyrazol-3-yl)methyl)urea] | 36 |

Same assay, conditions: 65 hours treatment, read-out: IC50

| Molecule | IC50 [nM] |
| --- | --- |
| 3-(6-fluoropyridin-3-yl)-1-(2-methoxypyrimidin-5-yl)-1-((5-(trifluoromethyl)-1H-pyrazol-3-yl)methyl)urea [Example 184] | 250 |

Same assay, conditions: Hepatitis B virus, HePAD38, 65 h, 65 hours treatment

| Molecule | IC50 [nM] |
| --- | --- |
| COc1cc(N(Cc2cc(C(F)(F)F)[nH]n2)C(=O)Nc2ccc(F)c(C(F)F)c2)cnn1 [Example 203, 3-(3-(difluoromethyl)-4-fluorophenyl)-1-(6-methoxypyridazin-4-yl)-1-((5-(trifluoromethyl)-1H-pyrazol-3-yl)methyl)urea] | 13 |
| N#Cc1ccc(N(Cc2cc(C(F)F)[nH]n2)C(=O)Nc2ccc(F)c(Cl)c2)cn1 [Example 126, 3-(3-chloro-4-fluorophenyl)-1-(6-cyanopyridin-3-yl)-1-((5-(difluoromethyl)-1H-pyrazol-3-yl)methyl)urea] | 540 |
| COc1ncc(N(Cc2n[nH]c(C(F)F)c2CC(C)(C)O)C(=O)Nc2ccc(F)c(Cl)c2)cn1 [Example 103, 3-(3-chloro-4-fluorophenyl)-1-((5-(difluoromethyl)-4-(2-hydroxy-2-methylpropyl)-1H-pyrazol-3-yl)methyl)-1-(2-methoxypyrimidin-5-yl)urea] | > 1100 |
| CCOCCc1c(CN(C(=O)Nc2ccc(F)c(Cl)c2)c2ccc(OC)nc2)n[nH]c1C(F)(F)F [Example 85, 3-(3-chloro-4-fluorophenyl)-1-((4-(2-ethoxyethyl)-5-(trifluoromethyl)-1H-pyrazol-3-yl)methyl)-1-(6-methoxypyridin-3-yl)urea] | 230 |
| COc1ccc(N(Cc2cc(C(F)F)[nH]n2)C(=O)Nc2ccc(F)c(C(F)F)c2)cn1 [Example 191, 1-((5-(difluoromethyl)-1H-pyrazol-3-yl)methyl)-3-(3-(difluoromethyl)-4-fluorophenyl)-1-(6-methoxypyridin-3-yl)urea] | 24 |
| CC(=O)c1cc(N(Cc2n[nH]c3c2CCOC3)C(=O)Nc2ccc(F)c(Cl)c2)ccn1 [Example 22, 1-(2-acetylpyridin-4-yl)-3-(3-chloro-4-fluorophenyl)-1-((1,4,5,7-tetrahydropyrano[3,4-c]pyrazol-3-yl)methyl)urea] | > 1100 |
| CC12CC(N(Cc3cc(C(F)(F)F)[nH]n3)C(=O)Nc3ccc(F)c(Cl)c3)(C1)C2 [Example 27, 3-(3-chloro-4-fluorophenyl)-1-(3-methylbicyclo[1.1.1]pentan-1-yl)-1-((5-(trifluoromethyl)-1H-pyrazol-3-yl)methyl)urea] | 160 |
| COc1ncc(N(Cc2n[nH]c(C(F)(F)F)c2CC(C)(C)O)C(=O)Nc2ccc(F)c(C(F)F)c2)cn1 [Example 205, 3-(3-(difluoromethyl)-4-fluorophenyl)-1-((4-(2-hydroxy-2-methylpropyl)-5-(trifluoromethyl)-1H-pyrazol-3-yl)methyl)-1-(2-methoxypyrimidin-5-yl)urea] | > 1100 |
| O=C(Nc1ccc(F)c(Cl)c1)N(Cc1cc(C(F)(F)F)[nH]n1)C12CC(C1)C2 [Example 137, 1-(bicyclo[1.1.1]pentan-1-yl)-3-(3-chloro-4-fluorophenyl)-1-((5-(trifluoromethyl)-1H-pyrazol-3-yl)methyl)urea] | 370 |
| COc1ncc(N(Cc2cc(C#N)[nH]n2)C(=O)Nc2ccc(F)c(Cl)c2)cn1 [Example 104, 3-(3-chloro-4-fluorophenyl)-1-((5-cyano-1H-pyrazol-3-yl)methyl)-1-(2-methoxypyrimidin-5-yl)urea] | 27 |
| COc1ncc(N(Cc2cc(C(F)(F)F)[nH]n2)C(=O)Nc2cc(F)c(F)c(C#N)c2)cn1 [Example 149, 3-(3-cyano-4,5-difluorophenyl)-1-(2-methoxypyrimidin-5-yl)-1-((5-(trifluoromethyl)-1H-pyrazol-3-yl)methyl)urea] | 600 |
| COc1ncc(N(Cc2cc(C(F)(F)F)[nH]n2)C(=O)Nc2cccc(C(F)F)n2)cn1 [Example 177, 3-(6-(difluoromethyl)pyridin-2-yl)-1-(2-methoxypyrimidin-5-yl)-1-((5-(trifluoromethyl)-1H-pyrazol-3-yl)methyl)urea] | 100 |
| COc1ncc(N(Cc2cc(C(F)(F)F)[nH]n2)C(=O)Nc2ccnc(C(F)F)c2F)cn1 [Example 211, 3-(2-(difluoromethyl)-3-fluoropyridin-4-yl)-1-(2-methoxypyrimidin-5-yl)-1-((5-(trifluoromethyl)-1H-pyrazol-3-yl)methyl)urea] | 31 |
| COc1ncc(N(Cc2cc(C(F)(F)F)[nH]n2)C(=O)Nc2ccc(Cl)nc2Cl)cn1 [Example 165, 3-(2,6-dichloropyridin-3-yl)-1-(2-methoxypyrimidin-5-yl)-1-((5-(trifluoromethyl)-1H-pyrazol-3-yl)methyl)urea] | > 1100 |
| COc1ncc(N(Cc2cc(C(F)(F)F)[nH]n2)C(=O)Nc2ccc(F)c(F)n2)cn1 [Example 170, 3-(5,6-difluoropyridin-2-yl)-1-(2-methoxypyrimidin-5-yl)-1-((5-(trifluoromethyl)-1H-pyrazol-3-yl)methyl)urea] | 300 |
| N#Cc1ccc(N(Cc2n[nH]c3c2CCCO3)C(=O)Nc2ccc(F)c(Cl)c2)cn1 [Example 124, 3-(3-chloro-4-fluorophenyl)-1-(6-cyanopyridin-3-yl)-1-((1,4,5,6-tetrahydropyrano[2,3-c]pyrazol-3-yl)methyl)urea] | 47 |
| COc1ncc(N(Cc2cc(C(F)F)[nH]n2)C(=O)Nc2cc(F)c(F)c(F)c2)cn1 [Example 220, 1-((5-(difluoromethyl)-1H-pyrazol-3-yl)methyl)-1-(2-methoxypyrimidin-5-yl)-3-(3,4,5-trifluorophenyl)urea] | 48 |
| COc1ncc(N(Cc2cc(C(F)(F)F)[nH]n2)C(=O)Nc2ccnc(C(F)F)c2)cn1 [Example 175, 3-(2-(difluoromethyl)pyridin-4-yl)-1-(2-methoxypyrimidin-5-yl)-1-((5-(trifluoromethyl)-1H-pyrazol-3-yl)methyl)urea] | 41 |
| COc1ncc(N(Cc2cc(C(F)(F)F)[nH]n2)C(=O)Nc2cnc(F)c(Cl)c2)cn1 [Example 107, 3-(5-chloro-6-fluoropyridin-3-yl)-1-(2-methoxypyrimidin-5-yl)-1-((5-(trifluoromethyl)-1H-pyrazol-3-yl)methyl)urea] | 62 |
| COc1ncc(N(Cc2cc(C#N)[nH]n2)C(=O)Nc2ccc(F)c(C#N)c2)cn1 [Example 157, 1-((5-cyano-1H-pyrazol-3-yl)methyl)-3-(3-cyano-4-fluorophenyl)-1-(2-methoxypyrimidin-5-yl)urea] | 66 |
| N#Cc1cc(N(Cc2n[nH]c3c2COCC3)C(=O)Nc2ccc(F)c(Cl)c2)ccn1 [Example 123, 3-(3-chloro-4-fluorophenyl)-1-(2-cyanopyridin-4-yl)-1-((1,4,6,7-tetrahydropyrano[4,3-c]pyrazol-3-yl)methyl)urea] | 249 |
| COc1ncc(N(Cc2cc(C(F)(F)F)[nH]n2)C(=O)Nc2nc(Cl)cc(C)c2F)cn1 [Example 141, 3-(6-chloro-3-fluoro-4-methylpyridin-2-yl)-1-(2-methoxypyrimidin-5-yl)-1-((5-(trifluoromethyl)-1H-pyrazol-3-yl)methyl)urea] | 420 |
| COC12CC(N(Cc3cc(C(F)(F)F)[nH]n3)C(=O)Nc3ccc(F)c(C#N)c3)(C1)C2 [Example 162, 3-(3-cyano-4-fluorophenyl)-1-(3-methoxybicyclo[1.1.1]pentan-1-yl)-1-((5-(trifluoromethyl)-1H-pyrazol-3-yl)methyl)urea] | 36 |
| COc1ncc(N(Cc2cc(C(F)F)[nH]n2)C(=O)Nc2ccc(F)c(C(F)F)c2)cn1 [Example 190, 1-((5-(difluoromethyl)-1H-pyrazol-3-yl)methyl)-3-(3-(difluoromethyl)-4-fluorophenyl)-1-(2-methoxypyrimidin-5-yl)urea] | 20 |
| COc1ncc(N(Cc2cc(C(F)F)[nH]n2)C(=O)Nc2ccc(Cl)nc2Cl)cn1 [Example 166, 3-(2,6-dichloropyridin-3-yl)-1-((5-(difluoromethyl)-1H-pyrazol-3-yl)methyl)-1-(2-methoxypyrimidin-5-yl)urea] | > 1100 |
| COc1ncc(N(Cc2cc(C(F)(F)F)[nH]n2)C(=O)Nc2cnc(Cl)nc2)cn1 [Example 143, 3-(2-chloropyrimidin-5-yl)-1-(2-methoxypyrimidin-5-yl)-1-((5-(trifluoromethyl)-1H-pyrazol-3-yl)methyl)urea] | > 1100 |
| COc1ncc(N(Cc2cc(C(F)(F)F)[nH]n2)C(=O)Nc2cnc(F)c(F)c2)cn1 [Example 171, 3-(5,6-difluoropyridin-3-yl)-1-(2-methoxypyrimidin-5-yl)-1-((5-(trifluoromethyl)-1H-pyrazol-3-yl)methyl)urea] | 280 |
| COc1ccc(N(Cc2cc(C(F)(F)F)[nH]n2)C(=O)Nc2ccc(F)c(C(F)F)c2)nn1 [Example 200, 3-(3-(difluoromethyl)-4-fluorophenyl)-1-(6-methoxypyridazin-3-yl)-1-((5-(trifluoromethyl)-1H-pyrazol-3-yl)methyl)urea] | > 1100 |

From patent US20250009742A1 (priority 2021, published 2025)
